Where “and” joins values, the source holds several entries; their conditions need not be identical. Equal entries are not always repeated.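 How tested: cells in 96-well plates exposed to compound for 48 hours at five concentrations. GI50 = concentration required for 50% inhibition of growth. The concentration for full growth arrest is given as TGI.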

Among the test systems are COLO 205 colon; KM12 colon; OVCAR-4 ovarian; MCF7 breast; SF-295 CNS; T-47D breast; CCRF-CEM leukemia; OVCAR-5 ovarian; SK-MEL-28 melanoma; SF-539 CNS.
Holding throughout (experiment): growth of human tumour cells (NCI), 48 h

`CC1=Cc2cc3[n-]c(cc4nc(cc5[n-]c(cc1n2)c(C)c5CCC(=O)O)C(CCC(=O)O)=C4C)cc3C.[Cu+2]`: the GI50 was > 1 µM and 40.7 µM in the experiment on COLO 205 colon; over 92.2 µM in the experiment with KM12 colon; over 100 µM in the experiment on OVCAR-4 ovarian; 63.7 µM in the experiment on MCF7 breast; 51.3 µM with SF-295 CNS; 47.6 µM in the experiment with T-47D breast. Moreover, the GI50 in the experiment on CCRF-CEM leukemia is > 1 µM and 12.1 µM; in the experiment with OVCAR-5 ovarian, over 100 µM; in the experiment with SK-MEL-28 melanoma it was > 1 µM and 4.4 µM; in the experiment with SF-539 CNS it was < 1 µM and 3.52 µM. Also, the TGI with COLO 205 colon is over 100 µM; with KM12 colon it was over 100 µM; in the experiment with OVCAR-4 ovarian it was over 100 µM; with MCF7 breast it was over 100 µM; with SF-295 CNS it was over 96.9 µM; in the experiment with T-47D breast, over 100 µM. Moreover, the TGI in the experiment on CCRF-CEM leukemia was over 68.5 µM; in the experiment with OVCAR-5 ovarian, over 100 µM; in the experiment on SK-MEL-28 melanoma, > 1 µM and 12.9 µM; in the experiment on SF-539 CNS, > 1 µM and 11.6 µM.

Consider `O=C(Nc1nc(-c2ccc(Cl)cc2)cs1)c1ccc(O)c(O)c1`, for which the GI50 in the experiment with COLO 205 colon is 11.4 µM; in the experiment with KM12 colon, 5.36 µM; with OVCAR-4 ovarian, 4.33 µM; in the experiment on MCF7 breast it was 5.49 µM; with SF-295 CNS, 11.5 µM; with T-47D breast, 2.87 µM. In addition, the GI50 was 2.22 µM in the experiment with CCRF-CEM leukemia, 14.7 µM in the experiment on OVCAR-5 ovarian, 3.63 µM with SK-MEL-28 melanoma and 3.92 µM in the experiment with SF-539 CNS. In addition, the TGI in the experiment with COLO 205 colon came out at 26.5 µM; with KM12 colon it was 21.2 µM; in the experiment on OVCAR-4 ovarian, 35.9 µM; with MCF7 breast, 43.4 µM; in the experiment on SF-295 CNS, 26.2 µM; in the experiment with T-47D breast it was 18.5 µM. Further, the TGI with CCRF-CEM leukemia was 9.35 µM; with OVCAR-5 ovarian, 36.1 µM; with SK-MEL-28 melanoma, 20 µM; in the experiment on SF-539 CNS, 14.8 µM.

Consider `Cc1cc(S(=O)(=O)/N=C(\N)n2nc(C)c(C)c2C)c(SCc2ccccc2)cc1Cl`, for which the GI50 with COLO 205 colon is 74 µM; with KM12 colon, 9.47 µM; with OVCAR-4 ovarian it was 19.7 µM; with MCF7 breast, 5.12 µM; in the experiment with SF-295 CNS, 7.99 µM; in the experiment on T-47D breast, 3.14 µM. For the same compound, the GI50 in the experiment on CCRF-CEM leukemia was 4.49 µM; in the experiment on OVCAR-5 ovarian, over 100 µM; in the experiment on SK-MEL-28 melanoma, over 100 µM; in the experiment with SF-539 CNS, over 100 µM. The TGI in the experiment with COLO 205 colon, with KM12 colon, with OVCAR-4 ovarian, in the experiment on MCF7 breast, in the experiment with SF-295 CNS and with T-47D breast was over 100 µM each time. In addition, the TGI with CCRF-CEM leukemia, in the experiment on OVCAR-5 ovarian, in the experiment on SK-MEL-28 melanoma and with SF-539 CNS was over 100 µM each time.

Consider `Cc1cc(Nc2nc(N3CCOCC3)nc3ccccc23)n[nH]1`, for which the GI50 in the experiment with COLO 205 colon is 3.09 µM; with KM12 colon, 0.4 µM; in the experiment with OVCAR-4 ovarian, 7.26 µM; with MCF7 breast, 9.7 µM; in the experiment on SF-295 CNS, 6.19 µM; in the experiment on T-47D breast, 9.63 µM. The GI50 in the experiment on CCRF-CEM leukemia is 4.03 µM; in the experiment on OVCAR-5 ovarian, 25.4 µM; in the experiment with SK-MEL-28 melanoma it was 20.4 µM; with SF-539 CNS it was 4.27 µM. Moreover, the TGI was 11.9 µM in the experiment with COLO 205 colon; over 100 µM with KM12 colon; over 100 µM in the experiment on OVCAR-4 ovarian; over 100 µM in the experiment with MCF7 breast; 74.4 µM in the experiment on SF-295 CNS; over 100 µM with T-47D breast. Besides, the TGI in the experiment on CCRF-CEM leukemia was over 100 µM; with OVCAR-5 ovarian, over 100 µM; in the experiment on SK-MEL-28 melanoma it was over 100 µM; in the experiment on SF-539 CNS, 16.6 µM.

Turning to `CCOC(=O)c1ccc2[nH]c(Cc3[nH]c4ccc(C(=O)OCC)cc4c3C)c(C)c2c1`, the GI50 in the experiment on COLO 205 colon was 2.51 µM; with KM12 colon, 1.51 µM; in the experiment with OVCAR-4 ovarian, 7.87 µM; in the experiment on MCF7 breast, 1.98 µM; with SF-295 CNS, 1.42 µM; in the experiment on T-47D breast, 4.94 µM. The GI50 is 1.58 µM in the experiment on CCRF-CEM leukemia, 8.94 µM with OVCAR-5 ovarian, 5.26 µM in the experiment with SK-MEL-28 melanoma and 1.37 µM in the experiment with SF-539 CNS. Further, the TGI in the experiment on COLO 205 colon was found to be 21.2 µM; with KM12 colon, 20.7 µM; in the experiment on OVCAR-4 ovarian, 47.7 µM; in the experiment on MCF7 breast, 22.6 µM; in the experiment with SF-295 CNS, 13.5 µM; with T-47D breast, 23.9 µM. The TGI in the experiment on CCRF-CEM leukemia was determined as 28.7 µM; in the experiment on OVCAR-5 ovarian, 53.8 µM; with SK-MEL-28 melanoma, 22.8 µM; in the experiment with SF-539 CNS, 13.3 µM.

For the compound `COc1ccc2c(c1)C(=O)c1c-2c(N2CCN(C(=O)CN(C)C)CC2)nc2ccccc12`, the GI50 in the experiment with COLO 205 colon is 13.3 µM; in the experiment with KM12 colon, 25.4 µM; in the experiment with OVCAR-4 ovarian it was 13 µM; with MCF7 breast, 12.3 µM; in the experiment on SF-295 CNS, 13.7 µM; with T-47D breast, 16.2 µM. For the same compound, the GI50 with CCRF-CEM leukemia is 10.7 µM; in the experiment on OVCAR-5 ovarian it was 28.8 µM; with SK-MEL-28 melanoma, 1.29 µM; with SF-539 CNS, 15.1 µM. Moreover, the TGI stood at 28.1 µM with COLO 205 colon; 83.1 µM with KM12 colon; 29.5 µM in the experiment with OVCAR-4 ovarian; 27.6 µM in the experiment on MCF7 breast; 41 µM in the experiment on SF-295 CNS; 34.1 µM in the experiment with T-47D breast. Further, the TGI in the experiment on CCRF-CEM leukemia worked out at 27.1 µM; in the experiment with OVCAR-5 ovarian, 67.3 µM; with SK-MEL-28 melanoma, 3.16 µM; in the experiment on SF-539 CNS, 30.3 µM.

With `Nc1c(C(=O)Nc2cccc3ccccc23)sc2nc3c(cc12)CCCCC3`, the GI50 with COLO 205 colon was 1.46 µM; in the experiment on KM12 colon it was 0.76 µM; with OVCAR-4 ovarian, 1.79 µM; in the experiment with MCF7 breast, 0.168 µM; with SF-295 CNS, 0.421 µM; in the experiment with T-47D breast it was 5.94 µM. Also, the GI50 in the experiment with CCRF-CEM leukemia was 0.692 µM; in the experiment on OVCAR-5 ovarian, 2.48 µM; with SK-MEL-28 melanoma, 4.32 µM; in the experiment on SF-539 CNS, 0.458 µM. Also, the TGI in the experiment on COLO 205 colon was 4.99 µM; in the experiment on KM12 colon, over 50 µM; with OVCAR-4 ovarian it was over 50 µM; with MCF7 breast, over 50 µM; in the experiment on SF-295 CNS, over 50 µM; with T-47D breast, over 50 µM. In addition, the TGI with CCRF-CEM leukemia, with OVCAR-5 ovarian, in the experiment with SK-MEL-28 melanoma and with SF-539 CNS was over 50 µM each time.
